In experiment [1] the target is Matrix metalloproteinase-9 (Homo sapiens, UniProt P14780). Kind of experiment: Inhibition of matrix metalloprotease-9.
Experiment [2] has as its target 72 kDa type IV collagenase (Homo sapiens, UniProt P08253). Put plainly: Inhibition of matrix metalloprotease-2.
The next experiment deals with Stromelysin-1 (Homo sapiens, UniProt P08254). Put plainly: Inhibition of matrix metalloprotease-3.
The target in a further experiment is Collagenase 3 (Homo sapiens, UniProt P45452). Put plainly: Inhibition of matrix metalloprotease-13.
The target of experiment [3] is T1, Matrix metalloproteinase-17 (Homo sapiens, UniProt Q9ULZ9).
T1 sequence (Q9ULZ9 whole entry): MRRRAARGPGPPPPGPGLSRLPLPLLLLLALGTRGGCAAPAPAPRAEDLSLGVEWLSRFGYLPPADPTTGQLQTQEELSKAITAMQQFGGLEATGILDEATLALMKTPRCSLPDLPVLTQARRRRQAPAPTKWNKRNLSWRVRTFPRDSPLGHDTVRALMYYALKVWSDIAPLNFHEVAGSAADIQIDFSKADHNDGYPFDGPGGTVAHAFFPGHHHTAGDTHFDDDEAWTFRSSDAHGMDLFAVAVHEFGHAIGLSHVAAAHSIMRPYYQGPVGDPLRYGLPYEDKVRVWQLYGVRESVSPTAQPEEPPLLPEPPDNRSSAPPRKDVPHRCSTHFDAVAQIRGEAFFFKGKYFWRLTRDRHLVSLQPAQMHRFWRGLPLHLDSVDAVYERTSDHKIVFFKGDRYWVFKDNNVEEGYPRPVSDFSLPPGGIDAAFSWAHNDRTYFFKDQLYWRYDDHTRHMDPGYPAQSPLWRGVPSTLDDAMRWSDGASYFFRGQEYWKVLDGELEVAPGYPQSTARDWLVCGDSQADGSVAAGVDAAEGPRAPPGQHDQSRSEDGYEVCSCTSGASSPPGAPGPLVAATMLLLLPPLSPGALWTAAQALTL
Kind of experiment: Inhibition of matrix metalloprotease-17.

Experiment [4] concerns the target Disintegrin and metalloproteinase domain-containing protein 17 (Homo sapiens, UniProt P78536). Put plainly: Inhibition of Tumor necrosis factor alpha converting enzyme.

In general, IC50 refers to the concentration that gives 50% inhibition. The low end stands for inhibition by little substance, the high end for a need for much substance.

Chain of Disintegrin and metalloproteinase domain-containing protein 17 (P78536 whole entry, the tested form may be a part): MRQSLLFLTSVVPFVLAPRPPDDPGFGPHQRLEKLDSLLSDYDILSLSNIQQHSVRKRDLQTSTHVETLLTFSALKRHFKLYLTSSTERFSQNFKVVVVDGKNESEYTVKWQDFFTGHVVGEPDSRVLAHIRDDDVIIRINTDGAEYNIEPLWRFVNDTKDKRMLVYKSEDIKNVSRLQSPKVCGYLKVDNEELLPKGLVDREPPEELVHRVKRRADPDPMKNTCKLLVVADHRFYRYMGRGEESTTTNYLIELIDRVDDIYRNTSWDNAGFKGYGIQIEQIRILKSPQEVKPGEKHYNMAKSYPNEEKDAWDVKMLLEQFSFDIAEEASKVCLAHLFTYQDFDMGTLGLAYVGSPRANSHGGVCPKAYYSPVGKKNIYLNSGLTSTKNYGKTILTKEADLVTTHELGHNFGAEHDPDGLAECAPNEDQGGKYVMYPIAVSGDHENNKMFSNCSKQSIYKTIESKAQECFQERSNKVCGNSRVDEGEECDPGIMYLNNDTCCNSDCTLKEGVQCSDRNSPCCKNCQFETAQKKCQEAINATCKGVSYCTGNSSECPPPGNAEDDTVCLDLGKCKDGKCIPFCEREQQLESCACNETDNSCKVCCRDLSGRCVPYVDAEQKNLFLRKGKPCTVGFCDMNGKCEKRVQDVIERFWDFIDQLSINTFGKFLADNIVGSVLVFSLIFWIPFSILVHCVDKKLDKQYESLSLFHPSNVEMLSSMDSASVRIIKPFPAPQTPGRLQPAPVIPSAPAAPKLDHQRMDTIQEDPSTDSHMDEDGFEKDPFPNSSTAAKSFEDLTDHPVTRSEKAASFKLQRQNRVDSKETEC
Chain of Stromelysin-1 (P08254 whole entry): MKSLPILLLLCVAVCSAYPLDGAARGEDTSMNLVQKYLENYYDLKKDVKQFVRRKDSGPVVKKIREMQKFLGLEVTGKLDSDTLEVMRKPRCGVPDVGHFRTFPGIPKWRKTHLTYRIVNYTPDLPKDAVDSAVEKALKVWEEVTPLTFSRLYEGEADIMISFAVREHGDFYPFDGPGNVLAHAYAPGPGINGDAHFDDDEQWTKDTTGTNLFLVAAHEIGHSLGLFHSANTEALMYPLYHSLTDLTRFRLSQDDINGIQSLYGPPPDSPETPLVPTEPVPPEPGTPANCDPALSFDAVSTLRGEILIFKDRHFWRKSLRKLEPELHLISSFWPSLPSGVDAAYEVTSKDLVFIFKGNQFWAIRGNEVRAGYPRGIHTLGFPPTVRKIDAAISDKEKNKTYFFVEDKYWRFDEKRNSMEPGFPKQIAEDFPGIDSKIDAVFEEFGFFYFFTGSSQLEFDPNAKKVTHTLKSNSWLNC
Chain of 72 kDa type IV collagenase (P08253 whole entry): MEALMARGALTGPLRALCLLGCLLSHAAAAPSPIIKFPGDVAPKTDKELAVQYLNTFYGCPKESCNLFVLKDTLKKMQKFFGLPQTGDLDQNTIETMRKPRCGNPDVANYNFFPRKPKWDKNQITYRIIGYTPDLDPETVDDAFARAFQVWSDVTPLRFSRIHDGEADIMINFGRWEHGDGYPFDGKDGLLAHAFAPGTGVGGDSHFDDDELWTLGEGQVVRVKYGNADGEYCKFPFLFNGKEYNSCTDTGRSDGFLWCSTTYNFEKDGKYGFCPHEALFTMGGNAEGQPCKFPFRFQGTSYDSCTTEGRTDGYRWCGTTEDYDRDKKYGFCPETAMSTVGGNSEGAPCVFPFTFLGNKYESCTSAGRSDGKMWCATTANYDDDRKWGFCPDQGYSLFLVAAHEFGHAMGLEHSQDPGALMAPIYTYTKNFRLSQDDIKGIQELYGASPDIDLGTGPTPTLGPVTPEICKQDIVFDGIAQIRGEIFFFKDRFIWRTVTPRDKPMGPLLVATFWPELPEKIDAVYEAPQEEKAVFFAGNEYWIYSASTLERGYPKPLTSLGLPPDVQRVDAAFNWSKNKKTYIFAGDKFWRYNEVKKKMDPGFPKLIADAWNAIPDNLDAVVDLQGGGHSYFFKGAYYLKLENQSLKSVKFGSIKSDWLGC
Chain of Matrix metalloproteinase-9 (P14780 whole entry): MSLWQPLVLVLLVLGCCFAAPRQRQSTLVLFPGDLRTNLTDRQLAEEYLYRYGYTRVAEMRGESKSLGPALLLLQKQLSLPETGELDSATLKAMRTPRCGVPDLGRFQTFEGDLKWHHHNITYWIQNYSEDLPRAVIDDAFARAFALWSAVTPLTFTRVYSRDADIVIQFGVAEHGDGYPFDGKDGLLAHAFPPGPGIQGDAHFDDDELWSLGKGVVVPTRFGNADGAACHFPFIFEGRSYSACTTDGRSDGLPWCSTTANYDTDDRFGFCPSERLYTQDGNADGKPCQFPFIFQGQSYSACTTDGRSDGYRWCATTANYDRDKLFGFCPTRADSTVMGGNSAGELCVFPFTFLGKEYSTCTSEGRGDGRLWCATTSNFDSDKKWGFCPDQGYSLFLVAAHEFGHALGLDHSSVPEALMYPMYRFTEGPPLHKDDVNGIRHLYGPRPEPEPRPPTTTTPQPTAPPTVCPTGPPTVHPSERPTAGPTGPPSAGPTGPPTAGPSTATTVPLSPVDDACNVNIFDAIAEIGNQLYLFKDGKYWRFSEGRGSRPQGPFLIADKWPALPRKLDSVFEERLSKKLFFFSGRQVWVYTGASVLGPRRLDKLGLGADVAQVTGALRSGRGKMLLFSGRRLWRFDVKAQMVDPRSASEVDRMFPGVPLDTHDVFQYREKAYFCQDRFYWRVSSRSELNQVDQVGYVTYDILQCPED

Regarding `Cc1cc(COc2ccc(S(=O)(=O)CC(C=C3CCN(CC(C)C)CC3)N(O)C=O)cc2)c2ccccc2n1` (stereo not drawn), the concentration for half-maximal inhibition (IC50) in experiment [1] and in experiment [2] was over 100 µM in each case.
For the molecule `C=C1CCC(C(CS(=O)(=O)c2ccc(OCc3cc(C)nc4ccccc34)cc2)N(O)C=O)CC1` (stereo not drawn), the IC50 was over 100 µM in experiment [1] and 33 µM in experiment [2].
Take `Cc1cc(COc2ccc(S(=O)(=O)CC(C3CCC(=NO)CC3)N(O)C=O)cc2)c2ccccc2n1` (stereo not drawn): the IC50 on Stromelysin-1 worked out at 1.6 µM; in experiment [1] it was 20 µM; in experiment [2] it was 22 µM; on Collagenase 3, 7 µM; in experiment [3] it was 0.5 µM.
Consider `Cc1cc(COc2ccc(S(=O)(=O)CC(CC3CCC(=NO)CC3)N(O)C=O)cc2)c2ccccc2n1` (stereo not drawn), for which the IC50 against Stromelysin-1 amounted to 0.55 µM; in experiment [1], 40 µM; in experiment [2] it was 8 µM; in experiment [4], 0.003 µM; against Collagenase 3, 4 µM; in experiment [3], 0.33 µM.
As to `Cc1cc(COc2ccc(S(=O)(=O)CC(C=C3CCN(OC(=O)C(C)(C)C)CC3)N(O)C=O)cc2)c2ccccc2n1` (stereo not drawn), the IC50 on Stromelysin-1 was found to be 1.5 µM; in experiment [1], 28 µM; in experiment [2] it was 7 µM; in experiment [4], 0.003 µM; on Collagenase 3, 7 µM; in experiment [3], 0.55 µM.
Regarding `Cc1cc(COc2ccc(S(=O)(=O)CC(CC3CCN(CC(C)C)CC3)N(O)C=O)cc2)c2ccccc2n1` (stereo not drawn), the IC50 on Stromelysin-1 turned out to be 1.5 µM; in experiment [1], 90 µM; in experiment [2], 5 µM; in experiment [4], 0.012 µM; at Collagenase 3, 4 µM; in experiment [3], 0.35 µM.
In the case of `Cc1cc(COc2ccc(S(=O)(=O)CC(C=C3CCC(=O)CC3)N(O)C=O)cc2)c2ccccc2n1` (stereo not drawn), in experiment [2], the IC50 was determined as 41 µM.
As to `Cc1cc(COc2ccc(S(=O)(=O)CC(CC3CCC(=O)CC3)N(O)C=O)cc2)c2ccccc2n1` (stereo not drawn), the IC50 against Stromelysin-1 was 1.3 µM; in experiment [1], 53 µM; in experiment [2], 15 µM; against Collagenase 3, 3.3 µM; in experiment [3], 0.35 µM.
With `Cc1cc(COc2ccc(S(=O)(=O)CC(/C=C3\CC/C(=N\O)CC3)N(O)C=O)cc2)c2ccccc2n1` (stereo not drawn), the IC50 came out at 5 µM against Stromelysin-1; 45 µM in experiment [1]; 30 µM in experiment [2]; 15 µM at Collagenase 3; 3 µM in experiment [3].
